Test results: article PMC4503722, “Novel Phenotypic Outcomes Identified for a Public Collection of Approved Drugs from a Publicly Accessible Panel of Assays” (PLoS ONE, 2015)
Like-named read-outs stand apart in the source and are kept apart here.

Experiments:
NCI-H716 cells = assay: cells; format: cell-based, Human; conditions: for IC50/EC50, hNCI-H716 GLP1 Secretion (assay number 12): concentration response; for EC50: Homo sapiens, NCI-H716, read-out: GLP 1 Secretion
STC-1 cell line = format: cell-based, mouse; conditions: for IC50/EC50, mSTC-1 GLP1 Secretion (assay number 13): concentration response
[1] = tested on: ECFC/ADSC co-culture cell nuclei number
[2] = tested on: endothelial tube formation in co-cultures of ECFCs and ADSCs treated with VEGF; assay: cells; format: cell-based, human; conditions: for IC50: Homo sapiens, read-out: Anti-Angiogenesis
SW480 = assay: cells; format: cell-based; conditions: Homo sapiens, SW480, read-out: Basal_Viability ATP SW480
hFLT3 = molecular target: T1, hFLT3 (Homo sapiens, UniProt P36888); assay: Cerep LANCE kinase assay hFLT3 (S1 assay 35); format: biochemical; conditions: read-out: FLT3
T1 construct: purchased Cerep (LANCE kinase assay platform, contract assay)

INS-1E cells = assay: cells; format: cell-based, rat; conditions: Rattus norvegicus, INS-1E, read-out: Insulin Secretion
DLD-1 = assay: cells; format: cell-based; conditions: Homo sapiens, DLD-1, read-out: Basal_Viability ATP DLD-1
[3] = tested on: nuclear β-catenin in C2C12 cells; assay: cells; format: cell-based; conditions: Mus musculus, C2C12, read-out: Wnt Pathway
SNU-C1 = assay: cells; format: cell-based; conditions: Homo sapiens, SNU-C1, read-out: Basal_Viability ATP SNU-C1
HT-29 = assay: cells; format: cell-based; conditions: Homo sapiens, HT-29, read-out: Basal_Viability ATP HT-29
[4] = tested on: HCT116 cells treated with a GSK3β inhibitor; assay: cells; format: cell-based; conditions: Homo sapiens, HCT-116, read-out: GSK3b inh pretreated_Viability ATP HCT116
hJAK2 = molecular target: T2, hJAK2 (Homo sapiens, UniProt O60674); assay: Cerep LANCE kinase assay hJAK2 (S1 assay 33); format: biochemical; conditions: read-out: JAK2
T2 construct: purchased Cerep (LANCE kinase assay platform, contract assay)

HeLa cells = assay: cells; format: cell-based; conditions: Homo sapiens, HeLa, read-out: CellCycle G2/M
HCT116 = assay: cells; format: cell-based; conditions: Homo sapiens, HCT-116, read-out: Basal_Viability ATP HCT116
hp70S6K1 (RPS6KB1) = molecular target: T3, hp70S6K1 (RPS6KB1) (Homo sapiens, UniProt P23443); assay: Cerep LANCE kinase assay hp70S6K1 (S1 assay 31); format: biochemical; conditions: read-out: p70S6K1
T3 construct: purchased Cerep (LANCE kinase assay platform, contract assay)

Colo320 = assay: cells; format: cell-based; conditions: Homo sapiens, COLO 320, read-out: Basal_Viability ATP Colo 320
hKDR = molecular target: T4, hKDR (Homo sapiens, UniProt P35968); assay: Cerep LANCE kinase assay hKDR (S1 assay 32); format: biochemical; conditions: read-out: KDR
T4 construct: purchased Cerep (LANCE kinase assay platform, contract assay)

hGSK3b = molecular target: T5, hGSK3b (Homo sapiens, UniProt P49841); assay: Cerep LANCE kinase assay hGSK3b (S1 assay 34); format: biochemical; conditions: read-out: GSK3b
T5 construct: purchased Cerep (LANCE kinase assay platform, contract assay)

RKO = assay: cells; format: cell-based; conditions: Homo sapiens, RKO, read-out: Basal_Viability ATP RKO

T3 sequence (P23443 whole entry): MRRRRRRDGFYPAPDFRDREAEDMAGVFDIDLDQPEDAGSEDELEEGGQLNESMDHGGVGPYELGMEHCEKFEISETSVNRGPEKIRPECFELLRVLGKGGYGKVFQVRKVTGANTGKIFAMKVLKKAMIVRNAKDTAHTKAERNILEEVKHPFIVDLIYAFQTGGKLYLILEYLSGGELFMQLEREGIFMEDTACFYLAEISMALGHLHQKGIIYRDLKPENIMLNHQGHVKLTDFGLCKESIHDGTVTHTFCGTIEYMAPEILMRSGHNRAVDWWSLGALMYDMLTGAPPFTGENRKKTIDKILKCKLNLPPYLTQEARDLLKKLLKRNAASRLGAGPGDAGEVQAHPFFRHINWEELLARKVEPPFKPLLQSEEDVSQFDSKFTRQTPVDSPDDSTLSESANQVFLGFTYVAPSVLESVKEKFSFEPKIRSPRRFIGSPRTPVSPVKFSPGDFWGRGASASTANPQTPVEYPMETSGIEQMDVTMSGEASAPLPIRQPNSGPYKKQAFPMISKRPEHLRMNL
T5 sequence (P49841 whole entry): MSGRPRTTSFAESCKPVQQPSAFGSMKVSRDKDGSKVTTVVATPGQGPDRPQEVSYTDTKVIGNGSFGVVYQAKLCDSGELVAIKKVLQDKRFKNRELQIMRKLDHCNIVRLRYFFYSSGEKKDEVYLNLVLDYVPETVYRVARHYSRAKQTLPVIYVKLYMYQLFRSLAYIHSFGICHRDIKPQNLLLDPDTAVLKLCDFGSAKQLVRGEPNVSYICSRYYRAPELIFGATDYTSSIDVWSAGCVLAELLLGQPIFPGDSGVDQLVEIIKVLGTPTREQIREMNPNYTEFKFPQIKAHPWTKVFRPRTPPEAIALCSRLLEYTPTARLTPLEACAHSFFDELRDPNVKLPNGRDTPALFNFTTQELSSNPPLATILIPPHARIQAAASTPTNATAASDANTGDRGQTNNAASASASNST
T4 sequence (P35968 20-1356): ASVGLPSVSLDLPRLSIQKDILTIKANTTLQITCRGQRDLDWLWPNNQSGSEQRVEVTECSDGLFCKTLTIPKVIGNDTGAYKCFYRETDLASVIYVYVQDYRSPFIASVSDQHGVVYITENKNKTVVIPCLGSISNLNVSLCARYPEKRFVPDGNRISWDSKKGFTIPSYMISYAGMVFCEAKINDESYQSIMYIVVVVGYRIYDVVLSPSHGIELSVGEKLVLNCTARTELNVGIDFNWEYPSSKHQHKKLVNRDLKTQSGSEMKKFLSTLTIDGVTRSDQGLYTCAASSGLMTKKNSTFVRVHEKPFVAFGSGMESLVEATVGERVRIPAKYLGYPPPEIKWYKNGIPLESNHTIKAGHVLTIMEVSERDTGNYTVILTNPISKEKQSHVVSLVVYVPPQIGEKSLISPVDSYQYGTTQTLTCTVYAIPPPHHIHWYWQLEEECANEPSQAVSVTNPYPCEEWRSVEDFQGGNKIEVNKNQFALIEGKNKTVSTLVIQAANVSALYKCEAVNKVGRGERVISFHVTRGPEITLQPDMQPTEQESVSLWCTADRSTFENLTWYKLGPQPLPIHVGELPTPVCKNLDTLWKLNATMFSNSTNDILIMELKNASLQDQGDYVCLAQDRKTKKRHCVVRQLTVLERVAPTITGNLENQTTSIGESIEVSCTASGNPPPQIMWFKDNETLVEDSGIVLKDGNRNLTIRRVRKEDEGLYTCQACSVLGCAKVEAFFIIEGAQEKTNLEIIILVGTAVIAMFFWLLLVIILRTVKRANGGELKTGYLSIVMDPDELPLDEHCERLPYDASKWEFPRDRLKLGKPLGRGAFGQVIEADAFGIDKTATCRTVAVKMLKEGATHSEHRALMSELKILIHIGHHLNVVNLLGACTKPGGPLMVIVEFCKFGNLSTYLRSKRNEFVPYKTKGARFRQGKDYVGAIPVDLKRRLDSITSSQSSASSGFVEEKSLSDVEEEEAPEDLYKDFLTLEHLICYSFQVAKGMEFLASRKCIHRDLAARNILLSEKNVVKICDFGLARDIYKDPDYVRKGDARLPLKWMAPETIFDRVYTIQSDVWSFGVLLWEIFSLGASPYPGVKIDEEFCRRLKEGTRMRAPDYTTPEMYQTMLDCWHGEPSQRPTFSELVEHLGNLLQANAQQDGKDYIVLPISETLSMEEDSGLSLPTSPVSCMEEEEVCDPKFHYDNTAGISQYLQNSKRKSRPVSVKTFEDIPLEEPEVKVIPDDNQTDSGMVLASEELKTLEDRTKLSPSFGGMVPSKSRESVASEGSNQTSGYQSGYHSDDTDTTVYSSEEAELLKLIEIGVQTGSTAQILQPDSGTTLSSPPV
T1 sequence (P36888 27-993): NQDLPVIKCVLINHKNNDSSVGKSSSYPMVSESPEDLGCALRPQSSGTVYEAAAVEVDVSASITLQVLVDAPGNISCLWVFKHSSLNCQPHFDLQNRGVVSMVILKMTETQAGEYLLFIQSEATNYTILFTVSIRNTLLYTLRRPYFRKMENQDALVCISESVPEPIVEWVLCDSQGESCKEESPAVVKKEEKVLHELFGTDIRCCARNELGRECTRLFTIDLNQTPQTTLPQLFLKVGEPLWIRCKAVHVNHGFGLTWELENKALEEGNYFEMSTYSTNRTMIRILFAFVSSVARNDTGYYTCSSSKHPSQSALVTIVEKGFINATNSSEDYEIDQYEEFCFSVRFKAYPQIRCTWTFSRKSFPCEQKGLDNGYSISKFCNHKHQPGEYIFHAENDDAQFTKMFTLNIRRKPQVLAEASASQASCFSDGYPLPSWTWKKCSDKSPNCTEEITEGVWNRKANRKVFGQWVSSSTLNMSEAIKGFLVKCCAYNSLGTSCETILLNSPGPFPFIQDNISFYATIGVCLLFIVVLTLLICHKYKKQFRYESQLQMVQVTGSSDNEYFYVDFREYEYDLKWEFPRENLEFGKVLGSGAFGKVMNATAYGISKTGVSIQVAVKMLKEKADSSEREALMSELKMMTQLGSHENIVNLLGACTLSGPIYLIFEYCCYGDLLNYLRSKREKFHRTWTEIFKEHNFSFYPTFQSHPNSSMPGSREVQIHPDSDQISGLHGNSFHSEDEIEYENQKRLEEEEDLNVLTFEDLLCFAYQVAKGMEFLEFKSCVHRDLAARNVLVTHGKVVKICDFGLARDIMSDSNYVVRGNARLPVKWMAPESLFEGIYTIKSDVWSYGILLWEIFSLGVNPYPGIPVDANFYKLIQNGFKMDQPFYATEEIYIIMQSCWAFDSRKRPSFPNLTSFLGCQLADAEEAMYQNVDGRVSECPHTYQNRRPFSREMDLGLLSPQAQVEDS
T2 sequence (O60674 whole entry): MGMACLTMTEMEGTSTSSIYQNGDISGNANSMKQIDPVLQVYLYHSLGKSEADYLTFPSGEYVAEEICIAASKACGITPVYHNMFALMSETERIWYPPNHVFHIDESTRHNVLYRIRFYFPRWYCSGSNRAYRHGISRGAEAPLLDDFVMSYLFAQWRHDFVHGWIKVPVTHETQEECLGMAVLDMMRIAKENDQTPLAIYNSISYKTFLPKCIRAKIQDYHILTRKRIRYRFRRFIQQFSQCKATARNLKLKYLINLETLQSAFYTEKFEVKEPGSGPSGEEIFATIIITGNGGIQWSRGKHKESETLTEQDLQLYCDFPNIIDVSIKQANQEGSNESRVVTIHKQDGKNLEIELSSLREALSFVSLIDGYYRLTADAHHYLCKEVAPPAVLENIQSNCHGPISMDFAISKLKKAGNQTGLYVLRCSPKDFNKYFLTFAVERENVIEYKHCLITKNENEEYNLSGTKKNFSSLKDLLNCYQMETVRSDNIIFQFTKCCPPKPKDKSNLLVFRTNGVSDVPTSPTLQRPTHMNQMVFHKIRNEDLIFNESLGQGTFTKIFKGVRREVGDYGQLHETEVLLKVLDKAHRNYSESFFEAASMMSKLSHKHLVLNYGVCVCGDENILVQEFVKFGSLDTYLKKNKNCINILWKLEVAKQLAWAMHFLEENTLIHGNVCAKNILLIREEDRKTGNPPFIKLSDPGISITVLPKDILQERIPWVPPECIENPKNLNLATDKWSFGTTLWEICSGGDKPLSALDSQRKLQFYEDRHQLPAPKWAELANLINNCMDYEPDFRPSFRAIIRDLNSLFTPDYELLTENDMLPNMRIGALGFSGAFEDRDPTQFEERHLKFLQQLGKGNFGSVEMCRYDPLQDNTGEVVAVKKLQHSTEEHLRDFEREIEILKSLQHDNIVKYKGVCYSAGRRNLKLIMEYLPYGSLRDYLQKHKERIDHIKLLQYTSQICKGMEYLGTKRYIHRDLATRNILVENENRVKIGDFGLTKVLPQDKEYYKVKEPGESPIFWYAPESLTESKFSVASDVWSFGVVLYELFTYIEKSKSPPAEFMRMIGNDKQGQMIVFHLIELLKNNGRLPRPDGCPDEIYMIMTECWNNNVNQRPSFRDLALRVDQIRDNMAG

Compound | hNCI-H716 GLP1 Secretion IC50/EC50 (NCI-H716 cells; assay number 12) [µM] | mSTC-1 GLP1 Secretion IC50/EC50 (STC-1 cell line; assay number 13) [µM] | other results
O=c1oc2ccccc2c(O)c1C(CC(O)c1ccc(-c2ccc(Br)cc2)cc1)c1ccccc1 (stereo not drawn) [NCGC00163939-02] | – | – | hNCI-H716 GLP1 Secretion IC50/EC50 (NCI-H716 cells): > 40 µM; mSTC-1 GLP1 Secretion IC50/EC50 (STC-1 cell line): 9.1609 µM
propagermanium [reference compound] | – | – | activity in NCI-H716 GLP-1 secretion assay (in words) (NCI-H716 cells): potent actives; activity in STC-1 GLP-1 secretion assay (in words) (STC-1 cell line): potent actives
CCCOC(C(=O)OC1CCN(C)CC1)(c1ccccc1)c1ccccc1.Cl [NCGC00181103-02] | > 40 | 23.8177 | –
Cc1c(NC(C)C)c(=O)n(-c2ccccc2)n1C [NCGC00016735-06] | > 40 | > 40 | –
O=C1OC2(c3ccccc31)c1cc(I)c(O)c(I)c1Oc1c2cc(I)c(O)c1I [NCGC00166249-03] | > 40 | 2.9301 | –
CC(C)(O)c1ccccc1CC[C@@H](SCC1(CC(=O)[O-])CC1)c1cccc(/C=C/c2ccc3ccc(Cl)cc3n2)c1.[Na+] [NCGC00164568-04] | 20.7101 | > 40 | –
CC1=C(C(=O)O)N2C(=O)[C@@H](NC(=O)[C@H](N)c3ccccc3)[C@H]2SC1 [NCGC00159522-05] | > 40 | > 40 | –
Cl.Nc1cc(C(F)(F)F)ccc1S [NCGC00262926-01] | 15.3214 | 1.1561 | VEGF_ADSC\ECFC Angio Hoechst NucArea IC50/EC50 [1]: > 10 µM; VEGF_ADSC\ECFC Angio CD31 TubeArea IC50/EC50 [2]: > 10 µM
C/C=C(/C(=C/C)c1ccc(O)cc1)c1ccc(O)cc1 [NCGC00018153-10] | – | – | IC50/EC50, hNCI-H716 GLP1 Secretion (assay number 12) (NCI-H716 cells): > 40 µM; IC50/EC50, mSTC-1 GLP1 Secretion (assay number 13) (STC-1 cell line): > 40 µM
CCN(CC)CCOC(=O)C(Cc1cccc2ccccc12)CC1CCCO1 (stereo not drawn) [NCGC00178213-05] | > 40 | > 40 | –
CN(C(=O)CN(CCO)CC(=O)N(C)C(C)(C)Cc1ccccc1)C(C)(C)Cc1ccccc1 [NCGC00016382-07] | – | – | IC50/EC50, hNCI-H716 GLP1 Secretion (assay number 12) (NCI-H716 cells): 25.0515 µM; IC50/EC50, mSTC-1 GLP1 Secretion (assay number 13) (STC-1 cell line): > 40 µM
Cc1nnc2n1-c1sc(CCc3ccc(CC(C)C)cc3)cc1C(c1ccccc1Cl)=NC2C (stereo not drawn) [NCGC00183008-01] | 24.6779 | > 40 | –
CCCCCCCCCCCCOCCOCCOCCOCCOCCOCCOCCOCCOCCO [NCGC00166290-03] | > 40 | 30.3683 | –
O=C(Nc1cccc2c(=O)cc(-c3nn[nH]n3)oc12)c1ccc(OCCCCc2ccccc2)cc1 [NCGC00181765-01] | > 40 | > 40 | –
CCCCCCCCN[C@@H](C)[C@H](O)c1ccc(SC(C)C)cc1 [NCGC00018301-05] | – | – | IC50/EC50, hNCI-H716 GLP1 Secretion (assay number 12) (NCI-H716 cells): 13.0298 µM; IC50/EC50, mSTC-1 GLP1 Secretion (assay number 13) (STC-1 cell line): > 40 µM
CCCCC(CC)CN1CN(CC(CC)CCCC)CC(C)(N)C1 (stereo not drawn) [NCGC00094819-07] | 36.4422 | 26.5729 | –
COc1ccc(OC(=O)N(CC(=O)O)Cc2ccc(OCCc3nc(-c4ccccc4)oc3C)cc2)cc1 [NCGC00262954-01] | 36.168 | 1.5351 | –
COc1cc(Nc2c(C#N)cnc3cc(OCCCN4CCN(C)CC4)c(OC)cc23)c(Cl)cc1Cl [NCGC00241107-02] | 25.1177 | > 40 | –
CCCCCCCCCCCCCCCCCCOCC(O)CO (stereo not drawn) [NCGC00095748-04] | > 40 | > 40 | –

Compound | hNCI-H716 GLP1 Secretion IC50/EC50 (NCI-H716 cells; assay number 12) [µM] | mSTC-1 GLP1 Secretion IC50/EC50 (STC-1 cell line; assay number 13) [µM] | other results
Cc1c(C)n(CCN(C)C)c2ccc(C(=O)OCCN(C)C)cc12 [NCGC00164483-03] | > 40 | 1.1962 | –
Cc1cc(N)c2cc(NC(=O)Nc3ccc4nc(C)cc(N)c4c3)ccc2n1 [NCGC00013130-04] | 34.2472 | > 40 | –
O=C(O)c1cc(N=Nc2ccc([O-])c(C(=O)O)c2)ccc1[O-].[Na+].[Na+] [NCGC00181008-02] | > 40 | 9.5352 | –
Cc1c(C)c2c(c(C)c1OC(=O)CCC(=O)OCCO)CC[C@@](C)(CCC[C@H](C)CCC[C@H](C)CCCC(C)C)O2 [NCGC00183103-01] | > 40 | > 40 | –
c1ccc2ccccc2c1 [NCGC00090793-05] | 20.7685 | > 40 | –
Nc1ccc(Cl)cc1C(=O)c1ccccc1F [NCGC00253725-01] | > 40 | > 40 | –
C#C[C@]1(O)CC[C@H]2[C@@H]3CCC4=CCCC[C@@H]4[C@H]3CC[C@@]21C [NCGC00179676-03] | 27.5211 | > 40 | –
CN[C@@H]1[C@H](O)[C@H](NC)[C@H]2O[C@@]3(O)C(=O)C[C@@H](C)O[C@H]3O[C@@H]2[C@H]1O.Cl.Cl [NCGC00017354-07] | > 40 | > 40 | –
[Cl][Pt+2][Cl].[NH2-].[NH2-] [NCGC00263537-01] | – | – | IC50/EC50, hNCI-H716 GLP1 Secretion (assay number 12) (NCI-H716 cells): > 40 µM; IC50/EC50, mSTC-1 GLP1 Secretion (assay number 13) (STC-1 cell line): > 40 µM
O=C(O)c1ccc(-n2nc(-c3ccccc3O)nc2-c2ccccc2O)cc1 [deferasirox] | – | – | IC50 (SW480): 0.0776 µM; EC50 (NCI-H716 cells): > 10 µM; IC50 (hFLT3): > 20 µM; EC50 (INS-1E cells): > 10 µM; IC50 (DLD-1): 0.651 µM; EC50 [3]: > 10 µM; IC50 (SNU-C1): 0.233 µM; IC50 (HT-29): 0.516 µM; IC50 [4]: 0.242 µM; IC50 (hJAK2): 18.2 µM; EC50 (HeLa cells): > 10 µM; IC50 (HCT116): 0.438 µM; IC50 [2]: 2.09 µM; IC50 (hp70S6K1 (RPS6KB1)): > 20 µM; IC50 (Colo320): 0.409 µM; IC50 (hKDR): > 20 µM; IC50 (hGSK3b): > 20 µM; IC50 (RKO): 0.1 µM
C=Cc1c(C)c2cc3[nH]c(cc4nc(cc5nc(cc1[nH]2)C(C)=C5CCC(=O)O)C(CCC(=O)O)=C4C)c(C)c3C=C [NCGC00015844-10] | 19.5523 | > 40 | –
CC(=O)NO [NCGC00094576-05] | > 40 | > 40 | –
COc1c(C)c2c(c(O)c1C/C=C(\C)CCC(=O)O)C(=O)OC2 [Mycophenolate] | – | – | IC50 (SW480): 2.6 µM; EC50 (NCI-H716 cells): > 10 µM; IC50 (hFLT3; kinase assay): > 20 µM; EC50 (INS-1E cells): > 10 µM; IC50 (DLD-1): > 20 µM; EC50 [3]: > 10 µM; IC50 (SNU-C1): > 20 µM; IC50 (HT-29): > 20 µM; IC50 [4]: 0.0498 µM; IC50 (hJAK2; kinase assay): > 20 µM; EC50 (HeLa cells): > 10 µM; IC50 (HCT116): 0.0672 µM; IC50 [2]: 1.26 µM; IC50 (hp70S6K1 (RPS6KB1); kinase assay): > 20 µM; IC50 (Colo320): 0.001 µM; IC50 (hKDR; kinase assay): > 20 µM; IC50 (hGSK3b; kinase assay): > 20 µM; IC50 (RKO): 0.165 µM
NC[C@@H]1O[C@H](O[C@H]2[C@@H](O)[C@H](O[C@@H]3[C@@H](O)[C@H](N)C[C@H](N)[C@H]3O[C@H]3O[C@H](CN)[C@@H](O)[C@H](O)[C@H]3N)O[C@@H]2CO)[C@H](N)[C@@H](O)[C@@H]1O [NCGC00179612-03] | – | – | IC50/EC50, hNCI-H716 GLP1 Secretion (assay number 12) (NCI-H716 cells): > 40 µM; IC50/EC50, mSTC-1 GLP1 Secretion (assay number 13) (STC-1 cell line): > 40 µM
CN(C)[C@@H]1C(=O)C(C(=O)NCN2CCCC2)=C(O)[C@@]2(O)C(=O)C3=C(O)c4c(O)cccc4[C@@](C)(O)[C@H]3C[C@@H]12 [NCGC00263906-02] | > 40 | > 40 | –
CC(C)(Oc1ccc(C2CC2(Cl)Cl)cc1)C(=O)O (stereo not drawn) [NCGC00015202-08] | > 40 | > 40 | –
CCOC(=O)[C@@H](N)CS.Cl [NCGC00166061-02] | – | – | IC50/EC50, hNCI-H716 GLP1 Secretion (assay number 12) (NCI-H716 cells): > 40 µM; IC50/EC50, mSTC-1 GLP1 Secretion (assay number 13) (STC-1 cell line): 14.3442 µM
CC(=O)OC(C)C[N+](C)(C)C.[Cl-] (stereo not drawn) [NCGC00015045-09] | > 40 | > 40 | –
